Source: US4072751A, “Pesticidal N-substituted bis-carbamoyl sulfide compounds” (priority 1976, dated 1978)

What was measured:
[1] = tested on: Mexican bean beetle (Epilachna varivestis, Muls.); experiment: Mexican Bean Beetle Leaf Spray Test; type: in vivo; set-up: key: A: excellent control; B: partial control; C: no control; settings: fourth instar larvae; 500 parts of test compound per million parts of final formulation; 3 days
Procedure: (§1) Suspensions of the test compounds were prepared by dissolving one gram of compound in 50 milliliters of acetone in which had been dissolved 0.1 gram (10 percent of the weight of compound) of an alkylphenoxy polyethoxyethanol surfactant, as an emulsifying or dispersing agent. The resulting solution was mixed into 150 milliliters of water to give roughly 200 milliliters of a suspension containing the compound in finely divided form. The thus-prepared stock suspension contained 0.5 percent by weight of test compound. The test concentrations in parts per million by weight employed in the tests described hereinbelow were obtained by appropriate dilutions of the stock suspension with water. The test procedures were as follows:
Fourth instar larvae of the Mexican bean beetle (Epilachna varivestis, Muls.) reared on Tendergreen bean plants at a temperature of 80±5° and 50±5 percent relative humidity, were the test insects.
The test compounds were formulated by diluting the stock suspension with water to give a suspension containing 500 parts of test compound per million parts of final formulation. Potted Tendergreen bean plants of standard height and age were placed on a revolving turntable and sprayed with 100-110 milliliters of test compound formulation by use of a DeVilbiss spray gun set at 10 psig air pressure. This application, which lasted 25 seconds was sufficient to wet plants to run-off. As a control, 100-110 milliliters of a water-acetone-emulsifier solution containing no test compound were also sprayed on infested plants. When dry, the paired leaves were separated and each was placed in a 9 centimeter Petri dish lined with moistened filter paper. Five randomly selected larvae were introduced into each dish, and the dishes were closed. The closed dishes were labeled and held at a temperature of 80±5° F. for 3 days. Although the larvae could easily consume the leaf within 24 to 48 hours, no more food was added. Larvae which were unable to move the length of the body, even upon stimulation, were considered dead.
(§2) In these tests the pesticidal activity of the compounds against aphid, mite, Southern Armyworm, Mexican Bean Beetle, and house fly was rated as follows: […]

[2] = tested on: bean aphid (Aphis Fabae Scop.); experiment: Bean Aphid Foliage Spray Test; type: in vivo; set-up: key: A: excellent control; B: partial control; C: no control; settings: 500 parts of test compound per million parts of final formulation; 24 hour
Procedure: as §1
Adults and nymphal stages of the bean aphid (Aphis Fabae Scop.) reared on potted dwarf nasturtium plants at 65°-70° F and 50-70 percent relative humidity, constituted the test insects. For testing purposes, the number of aphids per pot was standardized to 100-150 by trimming plants containing excess aphids.
The test compounds were formulated by diluting the stock suspension with water to give a suspension containing 500 parts of test compound per million parts of final formulation.
The potted plants (one pot per compound tested) infested with 100-150 aphids, were placed on a revolving turntable and sprayed with 100-110 milliliters of test compound formulation by use of a DeVilbiss spray gun set at 40 psig. air pressure. This application, which lasted 25 seconds, was sufficient to wet the plants to run-off. As a control, 100-110 milliliters of a water-acetone-emulsifier solution containing no test compound were also sprayed on infested plants. After spraying, the pots were placed on their sides on a sheet of white standard mimeograph paper which had been previously ruled to facilitate counting. Temperature and humidity in the test room during the 24 hour holding period were 65°-70° F. and 50-70 percent, respectively. Aphids which fell onto the paper and were unable to remain standing after being uprighted were considered dead. Aphids remaining on the plants were observed closely for movement and those which were unable to move the length of the body upon stimulator by prodding were considered dead. Percent mortality was recorded for various concentration levels.
as §2

[3] = tested on: house flies (Musca domestica, L.); experiment: Fly Bait Test; type: in vivo; set-up: key: A: excellent control; B: partial control; C: no control; settings: adults, 500 parts of test compound per million parts of final formulation, 24 hours
Procedure: as §1
Four to 6 day old adult house flies (Musca domestica, L.) reared according to the specifications of the Chemical Specialties Manufacturing Association (Blue Book, McNair-Dorland Co., NY., 1954; pages 243-244, 261) under controlled conditions of 80±5° F. and 50±5 percent relative hmidity, were the test insects. The flies were immobilized by anesthetizing with carbon dioxide and 25 immobilized individuals, males and females, were transferred to a cage consisting of a standard food strainer about 5 inches in diameter which was inverted over a wrapping-paper-covered surface. The test compounds were formulated by diluting the stock suspension with a 10 percent (by weight) sugar solution to give a suspension containing 500 parts of test compound per million parts of final formulation, by weight. Ten milliliters of the test formulation were added to a souffle cup containing a one inch square of an absorbent cotton pad. This bait cup was introduced and centered on the blotting paper under the food strainer prior to admitting the anesthetized flies. The caged flies were allowed to feed on the bait for 24 hours, at a temperature of 80±5° F. and the relative humidity of 50±5 percent.
as §2

[4] = tested on: southern armyworm (Prodenia Eridania, (Cram.)); experiment: Southern Armyworm Leaf Spray Test; type: in vivo; set-up: key: A: excellent control; B: partial control; C: no control; settings: larvae; 500 parts of test compound per million parts of final formulation; 3 days
Procedure: as §1
Larvae of the southern armyworm (Prodenia Eridania, (Cram.), reared on Tendergreen bean plants at a temperature of 80±5° F. and relative humidity of 50±5 percent, constituted the test insects.
The test compounds were formulated by diluting the stock suspension with water to give a suspension containing 500 parts of test compound per million parts of final formulation. Potted Tendergreen bean plants of standard height and age were placed on a revolving turntable and sprayed with 100-110 milliliters of test compound formulation by use of a DeVilbiss spray gun set at 10 psig. air pressure.
This application which lasted 25 seconds was sufficient to wet plants to run-off. As a control, 100-110 milliliters of a water-acetone-emulsifier solution containing no test compound were also sprayed on infested plants. When dry, the paired leaves were separated and each one was placed in a 9 centimeter Petri dish lined with moistened filter paper. Five randomly selected larvae were introduced into each dish and the dishes were closed. The closed dishes were labeled and held at 80°-85° F. for 3 days. Although the larvae could easily consume the whole leaf within 24 hours, no more food was added. Larvae which were unable to move the length of the body, even upon stimulation by prodding, were considered dead. Percent mortality was recorded for various concentration levels.
as §2

[5] = Mammalian Toxicity Test (peroral toxicity); settings: in vivo, po, rat, read-out: A. O. Rat (LD50)
Procedure: Certain of these compositions were also evaluated to determine their peroral toxicity to mammals. The animal selected for this experiment was the rat. The test results obtained are expressed in terms of the number of milligrams of compositions per kilogram of weight of the animal required to achieve a morality rate of 50 percent (LD50).

[6] = tested on: two-spotted mite (Tetranychus urticae Koch); experiment: Mite Foliage Spray Test; type: in vivo; set-up: key: A: excellent control; B: partial control; C: no control; settings: 500 parts of test compound per million parts of final formulation; 6 days
Procedure: as §1
Adults and nymphal stages of the two-spotted mite (Tetranychus urticae Koch), reared on Tendergreen bean plants at 80±5 percent relative humidity, were the test organisms. Infested leaves from a stock culture were placed on the primary leaves of two bean plants 6 to 8 inches in height, growing in a 21/2 inch clay pot. 150-200 Mites, a sufficient number for testing, transferred from the excised leaves to the fresh plants in a period of 24 hours. Following the 24 hour transfer period, the excised leaves were removed from the infested plants. The test compounds were formulated by diluting the stock suspension with water to give a suspension with water to give a suspension containing 500 parts of test compound per million parts of final formulation. The potted plants (one pot per compound) were placed on a revolving turntable and sprayed with 100-110 milliliters of test compound formulation by use of a DeVilbiss spray gun set at 40 psig. air pressure. This application, which lasted for 25 seconds was sufficient to wet the plants to run-off. As a control, 100-110 milliliters of a water solution containing acetone and emulsifier in the same concnetrations as the test compound formulation, but containing no test compound, were also sprayed on infested plants. The sprayed plants were held at 80±5 percent relative humidity for 6 days, after which a mortality count of motile forms was made. Microscopic examination for motile forms was made on the leaves of the test plants. Any individual which was capable of locomotion upon prodding, was considered living.
as §2

SMILES | Mexican Bean Beetle [1] | Aphid [2] | Housefly [3] | Southern Armyworm [4] | LD50 [5] [mg/kg] | Mite [6]
CSC(C)=NOC(=O)N(C)SN(C)C(=O)ON=C(C)[S+](C)[O-] (stereo not shown) | A | A | A | A | 202 | C
CSC(C)=NOC(=O)N(C)SN(C)C(=O)ON=C(C)S(C)(=O)=O | A | A | A | A | 285 | A
CC(=NOC(=O)N(C)SN(C)C(=O)ON=C(C)[S+](C)[O-])[S+](C)[O-] (stereo not shown) | C | C | C | C | – | C
CC(=NOC(=O)N(C)SN(C)C(=O)ON=C(C)S(C)(=O)=O)S(C)(=O)=O | C | C | C | C | – | C
